From the NIST ThermoML archive (doi:10.1021/je100967k)
± gives the expanded uncertainty stated by the source.

Legend:
[1] = xn = mol fraction of the nth substance listed; conditions: 101 kPa, Liquid; for speed of sound: Pulse-echo method
[2] = refractive index (Na D-line) (dimensionless); xn = mol fraction of the nth substance listed; conditions: 101 kPa, Liquid, Standard Abbe refractometry

NCCO [2-aminoethan-1-ol] + CN1CCCC1=O
Conditions	mass density, [1] [kg/m3]	refractive index, [2]	speed of sound, [1] [m/s]	viscosity, [1] [mPa·s]
293.15 K, x2 = 0	1016.65 ± 0.52	1.4525 ± 0.0005	1735.9 ± 1.4	24.61 ± 0.35
293.15 K, x2 = 0.1	1017.8 ± 0.52	1.4546 ± 0.0005	1701.7 ± 1.4	17.43 ± 0.27
293.15 K, x2 = 0.209	1019.27 ± 0.53	1.4567 ± 0.0006	1673.2 ± 1.4	11.99 ± 0.18
293.15 K, x2 = 0.3	1020.59 ± 0.53	1.4587 ± 0.0005	1649.8 ± 1.4	8.496 ± 0.13
293.15 K, x2 = 0.4	1022.06 ± 0.53	1.4604 ± 0.0006	1630.1 ± 1.4	6.211 ± 0.099
293.15 K, x2 = 0.5	1023.46 ± 0.53	1.462 ± 0.0006	1613.2 ± 1.4	4.761 ± 0.075
293.15 K, x2 = 0.596	1024.91 ± 0.54	1.4634 ± 0.0006	1599.1 ± 1.4	3.622 ± 0.059
293.15 K, x2 = 0.7	1026.57 ± 0.54	1.4648 ± 0.0006	1587.7 ± 1.4	2.883 ± 0.046
293.15 K, x2 = 0.8	1028.4 ± 0.54	1.4663 ± 0.0006	1578.6 ± 1.4	2.401 ± 0.039
293.15 K, x2 = 0.907	1030.5 ± 0.55	1.4677 ± 0.0006	1571.4 ± 1.4	2.089 ± 0.034
303.15 K, x2 = 0	1008.74 ± 0.51	1.4488 ± 0.0005	1703.7 ± 1.4	14.96 ± 0.24
303.15 K, x2 = 0.1	1009.8 ± 0.51	1.4507 ± 0.0005	1668.1 ± 1.4	10.93 ± 0.18
303.15 K, x2 = 0.209	1011 ± 0.51	1.4527 ± 0.0006	1638.4 ± 1.4	7.985 ± 0.13
303.15 K, x2 = 0.3	1012.1 ± 0.51	1.4546 ± 0.0006	1613.8 ± 1.4	5.834 ± 0.095
303.15 K, x2 = 0.4	1013.5 ± 0.51	1.4563 ± 0.0006	1593.6 ± 1.4	4.433 ± 0.073
303.15 K, x2 = 0.5	1014.9 ± 0.52	1.4578 ± 0.0006	1576 ± 1.4	3.752 ± 0.061
303.15 K, x2 = 0.596	1016.3 ± 0.52	1.4592 ± 0.0006	1561.2 ± 1.4	2.822 ± 0.046
303.15 K, x2 = 0.7	1018 ± 0.52	1.4605 ± 0.0006	1549.8 ± 1.4	2.296 ± 0.037
303.15 K, x2 = 0.8	1019.7 ± 0.53	1.4619 ± 0.0006	1540.5 ± 1.3	1.95 ± 0.032
303.15 K, x2 = 0.907	1021.72 ± 0.53	1.4632 ± 0.0006	1532.7 ± 1.3	1.725 ± 0.028
313.15 K, x2 = 0	1000.77 ± 0.49	1.4449 ± 0.0005	1671.2 ± 1.4	9.839 ± 0.15
313.15 K, x2 = 0.1	1001.6 ± 0.49	1.4467 ± 0.0005	1634.1 ± 1.4	7.429 ± 0.12
313.15 K, x2 = 0.209	1002.38 ± 0.49	1.4486 ± 0.0005	1603.1 ± 1.4	5.559 ± 0.091
313.15 K, x2 = 0.3	1003.2 ± 0.5	1.4505 ± 0.0005	1578.6 ± 1.4	4.278 ± 0.07
313.15 K, x2 = 0.4	1004.2 ± 0.5	1.452 ± 0.0006	1557.3 ± 1.4	3.358 ± 0.055
313.15 K, x2 = 0.5	1005.5 ± 0.5	1.4534 ± 0.0006	1538.9 ± 1.4	2.697 ± 0.045
313.15 K, x2 = 0.596	1006.9 ± 0.5	1.4548 ± 0.0006	1523.9 ± 1.3	2.245 ± 0.036
313.15 K, x2 = 0.7	1008.69 ± 0.51	1.4561 ± 0.0006	1512.1 ± 1.3	1.866 ± 0.03
313.15 K, x2 = 0.8	1010.68 ± 0.51	1.4575 ± 0.0006	1502.6 ± 1.3	1.62 ± 0.027
313.15 K, x2 = 0.907	1012.79 ± 0.51	1.4588 ± 0.0006	1494.4 ± 1.3	1.462 ± 0.024
323.15 K, x2 = 0	992.75 ± 0.5	1.4417 ± 0.0005	1638.8 ± 1.3	6.902 ± 0.11
323.15 K, x2 = 0.1	993.31 ± 0.5	1.4434 ± 0.0005	1600.2 ± 1.4	5.386 ± 0.088
323.15 K, x2 = 0.209	994 ± 0.5	1.4451 ± 0.0005	1568.9 ± 1.4	4.159 ± 0.069
323.15 K, x2 = 0.3	994.64 ± 0.5	1.4466 ± 0.0005	1544.4 ± 1.4	3.289 ± 0.054
323.15 K, x2 = 0.4	995.6 ± 0.5	1.4479 ± 0.0006	1521.5 ± 1.4	2.625 ± 0.043
323.15 K, x2 = 0.5	996.7 ± 0.49	1.4493 ± 0.0006	1502 ± 1.3	2.173 ± 0.035
323.15 K, x2 = 0.596	998.14 ± 0.49	1.4506 ± 0.0006	1486.7 ± 1.3	1.883 ± 0.031
323.15 K, x2 = 0.7	999.74 ± 0.49	1.4519 ± 0.0006	1474.5 ± 1.3	1.574 ± 0.026
323.15 K, x2 = 0.8	1001.73 ± 0.49	1.4533 ± 0.0006	1464.8 ± 1.3	1.356 ± 0.022
323.15 K, x2 = 0.907	1003.86 ± 0.5	1.4545 ± 0.0006	1456.8 ± 1.3	1.24 ± 0.021

CN1CCCC1=O [N-methylpyrrolidone] + CCO
Conditions	mass density, [1] [kg/m3]	refractive index, [2]	speed of sound, [1] [m/s]	viscosity, [1] [mPa·s]
293.15 K, x1 = 0.0992	829.76 ± 0.77	1.3797 ± 0.0005	1226.1 ± 1.1	1.139 ± 0.018
293.15 K, x1 = 0.1985	864.84 ± 0.69	1.3953 ± 0.0005	1284.2 ± 1.1	1.173 ± 0.019
293.15 K, x1 = 0.2973	894.36 ± 0.64	1.4089 ± 0.0005	1331.7 ± 1.2	1.218 ± 0.02
293.15 K, x1 = 0.3963	920.89 ± 0.59	1.4209 ± 0.0005	1375.7 ± 1.2	1.275 ± 0.021
293.15 K, x1 = 0.4948	944.41 ± 0.56	1.4313 ± 0.0005	1414.8 ± 1.2	1.354 ± 0.022
293.15 K, x1 = 0.5932	965 ± 0.53	1.4406 ± 0.0005	1448.9 ± 1.2	1.436 ± 0.023
293.15 K, x1 = 0.6912	983.96 ± 0.51	1.449 ± 0.0005	1480.7 ± 1.3	1.524 ± 0.025
293.15 K, x1 = 0.7897	1000.86 ± 0.49	1.4563 ± 0.0005	1509.4 ± 1.3	1.626 ± 0.026
293.15 K, x1 = 0.8875	1016.79 ± 0.53	1.4633 ± 0.0005	1537 ± 1.3	1.726 ± 0.028
293.15 K, x1 = 1	1032.87 ± 0.55	1.4706 ± 0.0006	1565.3 ± 1.4	1.858 ± 0.03
303.15 K, x1 = 0.0992	820.98 ± 0.78	1.376 ± 0.0006	1191.3 ± 1.1	0.9625 ± 0.016
303.15 K, x1 = 0.1985	855.96 ± 0.71	1.3916 ± 0.0005	1248.9 ± 1.1	0.986 ± 0.016
303.15 K, x1 = 0.2973	885.42 ± 0.65	1.4051 ± 0.0005	1295.9 ± 1.1	1.033 ± 0.017
303.15 K, x1 = 0.3963	911.91 ± 0.61	1.4168 ± 0.0005	1338.9 ± 1.2	1.09 ± 0.018
303.15 K, x1 = 0.4948	935.43 ± 0.57	1.4273 ± 0.0005	1377.6 ± 1.2	1.15 ± 0.019
303.15 K, x1 = 0.5932	955.97 ± 0.54	1.4366 ± 0.0005	1411.4 ± 1.2	1.22 ± 0.02
303.15 K, x1 = 0.6912	974.94 ± 0.52	1.4449 ± 0.0005	1442.9 ± 1.3	1.292 ± 0.021
303.15 K, x1 = 0.7897	991.85 ± 0.5	1.4523 ± 0.0005	1471.4 ± 1.3	1.371 ± 0.022
303.15 K, x1 = 0.8875	1007.8 ± 0.51	1.4593 ± 0.0006	1498.5 ± 1.3	1.45 ± 0.024
303.15 K, x1 = 1	1023.95 ± 0.53	1.4664 ± 0.0006	1526.5 ± 1.3	1.553 ± 0.025
313.15 K, x1 = 0.0992	812.09 ± 0.79	1.3717 ± 0.0006	1157 ± 1.1	0.803 ± 0.014
313.15 K, x1 = 0.1985	846.98 ± 0.72	1.3872 ± 0.0005	1214.7 ± 1.1	0.8276 ± 0.014
313.15 K, x1 = 0.2973	876.39 ± 0.66	1.4011 ± 0.0005	1260.3 ± 1.1	0.867 ± 0.015
313.15 K, x1 = 0.3963	902.87 ± 0.62	1.4127 ± 0.0005	1302.5 ± 1.2	0.9234 ± 0.015
313.15 K, x1 = 0.4948	926.39 ± 0.58	1.4234 ± 0.0005	1341 ± 1.2	0.98 ± 0.016
313.15 K, x1 = 0.5932	946.9 ± 0.55	1.4329 ± 0.0005	1374.2 ± 1.2	1.039 ± 0.017
313.15 K, x1 = 0.6912	965.89 ± 0.53	1.4411 ± 0.0005	1405.3 ± 1.2	1.109 ± 0.018
313.15 K, x1 = 0.7897	982.82 ± 0.51	1.4484 ± 0.0005	1433.5 ± 1.3	1.173 ± 0.019
313.15 K, x1 = 0.8875	998.8 ± 0.5	1.4552 ± 0.0006	1460.3 ± 1.3	1.237 ± 0.02
313.15 K, x1 = 1	1015.03 ± 0.52	1.4621 ± 0.0006	1487.8 ± 1.3	1.324 ± 0.022
323.15 K, x1 = 0.0992	803.05 ± 0.81	1.3677 ± 0.0006	1122.7 ± 1.1	0.657 ± 0.012
323.15 K, x1 = 0.1985	837.87 ± 0.73	1.3837 ± 0.0006	1179.6 ± 1.1	0.691 ± 0.012
323.15 K, x1 = 0.2973	867.27 ± 0.68	1.3974 ± 0.0006	1224.9 ± 1.1	0.731 ± 0.013
323.15 K, x1 = 0.3963	893.76 ± 0.63	1.4089 ± 0.0005	1266.6 ± 1.2	0.782 ± 0.013
323.15 K, x1 = 0.4948	917.3 ± 0.59	1.4195 ± 0.0006	1304.6 ± 1.2	0.833 ± 0.014
323.15 K, x1 = 0.5932	937.79 ± 0.57	1.4289 ± 0.0006	1337.3 ± 1.2	0.895 ± 0.015
323.15 K, x1 = 0.6912	956.8 ± 0.54	1.4372 ± 0.0006	1368.3 ± 1.2	0.952 ± 0.016
323.15 K, x1 = 0.7897	973.77 ± 0.53	1.4443 ± 0.0006	1396.1 ± 1.3	1.011 ± 0.017
323.15 K, x1 = 0.8875	989.78 ± 0.51	1.4512 ± 0.0006	1422.8 ± 1.3	1.071 ± 0.018
323.15 K, x1 = 1	1006.1 ± 0.5	1.4576 ± 0.0006	1450.2 ± 1.3	1.146 ± 0.019
